Data: ChEMBL document CHEMBL1122197, “Pyridoquinoxaline N-oxides. 1. A new class of antitrichomonal agents” (1982)

Columns and labels:
Tritrichomonas foetus [1] = experiment: Tested for anti-trichomonal activity in Tritrichomonas foetus, expressed as % reduction in the severity of peritoneal cavity infection at the dose of 25 mg/kg
Tritrichomonas foetus [2] = experiment: Tested for anti-trichomonal activity in Tritrichomonas foetus, expressed as % reduction in the severity of peritoneal cavity infection at the dose of 12.50 mg/kg; conditions: dose 12.5 mg/kg
Tritrichomonas foetus [3] = experiment: Tested for anti-trichomonal activity in Tritrichomonas foetus, expressed as % reduction in the severity of peritoneal cavity infection at the dose of 50 mg/kg

SMILES	Reduction (Tritrichomonas foetus [1]) [%]	Reduction (Tritrichomonas foetus [2]) [%]	Reduction (Tritrichomonas foetus [3]) [%]
CCn1c(=N)ccc2c1nc1ccccc1[n+]2[O-]	100	0	–
COCCn1c(=N)ccc2c1nc1ccccc1[n+]2[O-]	96	0	–
N=c1ccc2c(nc3ccccc3[n+]2[O-])n1C1CCCCC1	96	21	–
N=c1ccc2c(nc3ccccc3[n+]2[O-])n1CCO	57	–	–
N=c1ccc2c(nc3ccccc3[n+]2[O-])n1Cc1ccccc1	19	–	–
COC(Cn1c(=N)ccc2c1nc1ccccc1[n+]2[O-])OC	25	–	–
Cn1c(=O)ccc2nc3ccccc3nc21	18	–	–
Cn1c(=N)ccc2c1nc1ccccc1[n+]2[O-]	97	100	98
CCn1c(=N)ccc2nc3ccccc3nc21	89	0	–
Cn1c(=O)ccc2c1nc1ccccc1[n+]2[O-]	23	–	–
Cn1c(=N)ccc2nc3ccccc3nc21	75	34	98
N=c1ccc2c(nc3ccccc3[n+]2[O-])n1Cc1ccncc1	81	18	95
CCCn1c(=N)ccc2c1nc1ccccc1[n+]2[O-]	–	–	0
CCOCCn1c(=N)ccc2c1nc1ccccc1[n+]2[O-]	–	–	9
C=CCn1c(=N)ccc2c1nc1ccccc1[n+]2[O-]	38	–	–
N=c1ccc2nc3ccccc3nc2n1Cc1ccncc1	–	–	15
